Test results from patent publication US7432342B2, “Kinase anchor protein muteins, peptides thereof and related documents” (Sequenom, Inc., priority 2002, dated 2008).
Entries after “also recorded” stand apart in the source; their conditions may differ. Peptide text beside a SMILES is read from it. * marks the point of attachment. X1 = CN(C)c1ccc2c(c1)Oc1cc(N(C)C)ccc1C21OC(=O)c2cc(N3C(=O)CC(*)C3=O)ccc21

How the values were obtained:
full-length RIα = target: T1, full-length RIα (Bos taurus, UniProt P00514); assay: Fluorescence anisotropy binding assay (Example 9); parameters: species or system bovine; conditions: compared with the unsubstituted peptide
T1 construct: Full-length bovine RIα was expressed in E. coli 222; made in house; host or cells: E. coli 222
T1 sequence (P00514 whole entry): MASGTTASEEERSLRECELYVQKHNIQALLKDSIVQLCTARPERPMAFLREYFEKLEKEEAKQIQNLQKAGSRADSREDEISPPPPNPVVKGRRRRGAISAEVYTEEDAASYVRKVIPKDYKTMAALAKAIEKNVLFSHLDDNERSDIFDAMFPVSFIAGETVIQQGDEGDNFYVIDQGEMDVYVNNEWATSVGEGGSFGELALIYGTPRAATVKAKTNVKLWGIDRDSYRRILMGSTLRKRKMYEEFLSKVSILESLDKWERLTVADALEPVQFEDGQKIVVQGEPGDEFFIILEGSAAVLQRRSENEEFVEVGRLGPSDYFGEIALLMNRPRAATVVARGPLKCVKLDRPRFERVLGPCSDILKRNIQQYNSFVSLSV
Description: (§1) Each peptide was fluorescently labeled using a 25 mM solution of tetramethylrhodamine-5-maleimide (catalog number T-6027; Molecular Probes, Eugene, Oreg.) dissolved in DMSO. The peptides were labeled by incubating with a three-fold molar excess of the label for 16 hr at 4° C. in 20 mM Tris, pH 7.0 and 1 mM tris-(2-carboxyethyl) phosphine, hydrochloride (TCEP) (non-thiol reducing agent, Molecular Probes). The sample was quenched with 1 mM, β-mercaptoethanol to bind to any unreacted maleimide and diluted with 0.1% TFA for purification by HPLC. The labeled peptides were resolved using a C18 column with a water/acetonitrile gradient containing 0.1% TFA. The concentration of each peptide was determined by absorbance at 541 nm after diluting into 100% methanol and using an extinction coefficient of 91,000 M^−1 cm^−1 for absorbance of the rhodamine label at 541 nm (Molecular Probes Catalog). The peptides were stored at 4° C. in 50% acetonitrile.
(§2) Full-length murine RIIα was expressed in E. coli BL21 (DE3). Full-length bovine RIα was expressed in E. coli 222. The proteins were purified as previously described using a cAMP affinity resin (Hamuro et al. (2002) J. Mol. Biol., 321:703). The protein concentrations were determined using the following extinction coefficients at 280 nm, which were calculated using a standard concentration of protein calibrated using quantitative amino acid analysis: RIα 52,603 M^−1 cm^−1 and RIIα 62,456 M^−1 cm^−1. The proteins were stored at 4° C. in 50 mM MES pH 5.8, 50 mM NaCl, 2 mM EDTA, 2 mM EGTA, 2 mM DTT.
(§3) Binding of each fluorescently labeled peptide to the regulatory subunits was monitored using fluorescence anisotropy. RIα and RIIα were serially diluted beginning at 1 μM and 0.1 μM, respectively, into 10 mM HEPES pH 7.4, 0.15 M NaCl, 3 mM EDTA, 0.005% Surfactant P20 (Biacore) containing either 10 nM or 1 nM of fluorescently labeled peptide for RIα and RIIα, respectively. The samples were equilibrated for at least 1 hour at room temperature and fluorescence anisotropy monitored using a Fluoromax-2 (Jobin Yvon Horiba, SPEX Division, Edison, N.J.) equipped with Glan-Thompson polarizers. The rhodamine-labeled peptide was excited at 541 nm (5-10 nm bandpass) and emission monitored at 575 nm (5-10 nm bandpass). The anisotropy was calculated directly with the Fluoromax software using the following equation: r=(IVV−G*IVH)/(IVV+2G*IVH) (1) where r is the steady state anisotropy, IVV is the fluorescence intensity with the excitation and emission polarizers oriented in the vertical position (0° from normal), IVH is the fluorescence intensity with the excitation polarizer in the vertical position and the emission polarizer oriented in the horizontal position (90°) relative to the excitation polarizer, G is the monochromator grating factor which is equal to (IHV/IHH), with the first subscript indicating the position of the excitation polarizer and the second subscript indicating position of the emission polarizer. Three separate binding experiments were averaged and fit to a 1:1 binding model using the non-linear regression application in GraphPad Prism version 3.00 (GraphPad Software, San Diego, Calif.).

full-length RIIα = target: T2, full-length RIIα (Mus musculus, UniProt P12367); assay: Fluorescence anisotropy binding assay (Example 9); parameters: species or system murine; conditions: compared with the unsubstituted peptide
T2 construct: Full-length murine RIIα was expressed in E. coli BL21 (DE3); made in house; host or cells: E. coli BL21 (DE3)
T2 sequence (P12367 whole entry): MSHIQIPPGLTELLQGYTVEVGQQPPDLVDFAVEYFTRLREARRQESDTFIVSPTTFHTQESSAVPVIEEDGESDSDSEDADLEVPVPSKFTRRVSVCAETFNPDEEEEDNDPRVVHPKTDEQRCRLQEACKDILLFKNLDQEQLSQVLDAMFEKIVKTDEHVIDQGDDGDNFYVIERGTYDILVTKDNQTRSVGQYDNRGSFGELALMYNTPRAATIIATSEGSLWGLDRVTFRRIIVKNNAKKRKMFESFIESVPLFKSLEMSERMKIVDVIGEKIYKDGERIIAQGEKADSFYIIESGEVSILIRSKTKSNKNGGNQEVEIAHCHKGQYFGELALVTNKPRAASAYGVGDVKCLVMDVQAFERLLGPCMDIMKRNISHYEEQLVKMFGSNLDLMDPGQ
Description: as §1, §2, §3

GFP-RIα = target: T3, GFP-RIα (Bos taurus, UniProt P00514); assay: Co-localization with mitochondria-targeted Flag-tagged AKB domain constructs in 10T(1/2) cells (Example 10); type: cell-based, bovine; conditions: mutations of Table 7 in AKB domain of C-terminal 156 residues of mouse D-AKAP2, mitochondria-targeted
T3 construct: Full-length bovine RIα and mouse RIIα were fused with green fluorescent protein (GFP) by subcloning into pEGFPN1; expressed in transfected cells; host or cells: 10T(1/2) cells
T3 sequence (P00514 whole entry, the tested form may be a part): as the sequence (P00514 whole entry) above
Description: (§4) To test the ability of the mutations set forth in Table 7 [AKB(dual), AKB(RI), AKB(RII) and AKB(null)] to co-localize with selected PKA isoforms in cells, a flag-tagged AKB domain construct targeted to the mitochondria was prepared using the AKB domain and a mitochondria targeting sequence from D-AKAP1 as set forth in Example 3. The respective mutations were then incorporated into the AKB domain of D-AKAP2 to test for selectivity in the cell. The targeting constructs of the AKB domain were made by fusing the C-terminal 156 residues of mouse D-AKAP2 with the N-terminal mitochondrial-targeting domain of D-AKAP1 (residues 1-30 of D-AKAP1a). After adding a flag tag to the C-terminus, the constructs were sub-cloned into the pCI vector (Promega, Madison, Wis.). The mutations of the AKB domain corresponding to those set forth in Table 7 herein were made with the QuickChange mutagenesis method (Makarova et al. (2000) Biotechniques, 29:970-972). Full-length bovine RIα and mouse RIIα were fused with green fluorescent protein (GFP) by subcloning into pEGFPN1 (Clontech, Palo Alto, Calif.). Equal amounts of the targeting constructs and either GFP-RIα or GFP-RIIα constructs were co-transfected into 10T(1/2) cells using Lipofectamin (Invitrogen, Carlsbad, Calif.). The AKB domain was detected by immuno-staining with monoclonal antibodies against the Flag-tag (Kodak, Rochester, N.Y.) followed by a rhodamine-conjugated secondary antibody (Jackson Lab, Bar Harbor, Me.). The cells were imaged using a radiance confocal microscope (BioRad, Hercules, Calif.).

GFP-RIIα = target: T4, GFP-RIIα (Mus musculus, UniProt P12367); assay: as above; type: cell-based; conditions: mutations of Table 7 in AKB domain of C-terminal 156 residues of mouse D-AKAP2, mitochondria-targeted
T4 construct: Full-length bovine RIα and mouse RIIα were fused with green fluorescent protein (GFP) by subcloning into pEGFPN1; expressed in transfected cells; host or cells: 10T(1/2) cells
T4 sequence (P12367 whole entry, the tested form may be a part): as the sequence (P12367 whole entry) above
Description: as §4

SMILES	binding to RIα, in words (full-length RIα)	binding to RIIα, in words (full-length RIIα)	recruitment of GFP-RIα to the mitochondria (GFP-RIα)	recruitment of GFP-RIIα to the mitochondria (GFP-RIIα)	binding to RIα, in words (full-length RIα; listed as SEQ ID NO:103)	binding to RIIα, in words (full-length RIIα; listed as SEQ ID NO:103)
CC[C@H](C)[C@H](NC(=O)[C@H](CCCCN)NC(=O)[C@H](Cc1c[nH]c2ccccc12)NC(=O)[C@H](C)NC(=O)[C@H](CC(C)C)NC(=O)[C@H](CCC(=O)O)NC(=O)[C@H](CCC(=O)O)NC(=O)[C@H](CCC(N)=O)NC(=O)[C@H](C)NC(=O)[C@H](CCC(=O)O)NC(=O)[C@H](CC(=O)O)NC(=O)[C@@H](NC(=O)[C@H](CC(N)=O)NC(=O)CNC(=O)[C@H](CCC(N)=O)NC(=O)[C@@H](N)C(C)C)[C@@H](C)O)C(=O)N[C@@H](CCC(=O)O)C(=O)N[C@@H](CCCCN)C(=O)N[C@@H](CCSC)C(=O)N[C@H](C(=O)N[C@@H](Cc1c[nH]c2ccccc12)C(=O)N[C@@H](CO)C(=O)N[C@@H](CC(=O)O)C(=O)N[C@H](C(=O)N[C@@H](CCSC)C(=O)N[C@@H](CCC(N)=O)C(=O)N[C@@H](CCC(N)=O)C(=O)N[C@@H](CSC1CC(=O)N(c2ccc3c(c2)C(=O)OC32c3ccc(N(C)C)cc3Oc3cc(N(C)C)ccc32)C1=O)C(N)=O)C(C)C)[C@@H](C)CC (stereo partly shown) [AKB (null)] (H-VQGNTDEAQEELAWKIEKMIWSDVMQQC(X1)-NH2; N-terminus assumed)	bound very poorly	could not be detected	could not co-localize either GFP-RIα or RIIα	could not co-localize either GFP-RIα or RIIα		
CC[C@H](C)[C@H](NC(=O)[C@H](CCCCN)NC(=O)[C@H](Cc1c[nH]c2ccccc12)NC(=O)[C@H](CC(C)C)NC(=O)[C@H](CC(C)C)NC(=O)[C@H](CCC(=O)O)NC(=O)[C@H](CCC(=O)O)NC(=O)[C@H](CCC(N)=O)NC(=O)[C@H](C)NC(=O)[C@H](CCC(=O)O)NC(=O)[C@H](CC(=O)O)NC(=O)[C@@H](NC(=O)[C@H](CC(N)=O)NC(=O)CNC(=O)[C@H](CCC(N)=O)NC(=O)[C@@H](N)C(C)C)[C@@H](C)O)C(=O)N[C@@H](C)C(=O)N[C@@H](CCCCN)C(=O)N[C@@H](CCSC)C(=O)N[C@H](C(=O)N[C@H](C(=O)N[C@@H](CO)C(=O)N[C@@H](CC(=O)O)C(=O)N[C@H](C(=O)N[C@@H](CCSC)C(=O)N[C@@H](CCC(N)=O)C(=O)N[C@@H](CCC(N)=O)C(=O)N[C@@H](CSC1CC(=O)N(c2ccc3c(c2)C(=O)OC32c3ccc(N(C)C)cc3Oc3cc(N(C)C)ccc32)C1=O)C(N)=O)C(C)C)C(C)C)[C@@H](C)CC (stereo partly shown) [AKB (RII)] (H-VQGNTDEAQEELLWKIAKMIVSDVMQQC(X1)-NH2; N-terminus assumed)	dramatically affected binding to RIα	did not affect binding to RIIα	incapable of recruiting GFP-RI	recruited RII to the mitochondria		
CC[C@H](C)[C@H](NC(=O)[C@H](CCCCN)NC(=O)[C@H](Cc1c[nH]c2ccccc12)NC(=O)[C@H](C)NC(=O)[C@H](CC(C)C)NC(=O)[C@H](CCC(=O)O)NC(=O)[C@H](CCC(=O)O)NC(=O)[C@@H](N)Cc1ccccc1)C(=O)N[C@@H](C)C(=O)N[C@@H](CCCCN)C(=O)N[C@@H](CCSC)C(=O)N[C@H](C(=O)N[C@@H](Cc1c[nH]c2ccccc12)C(=O)N[C@@H](CO)C(=O)N[C@@H](CC(=O)O)C(=O)N[C@H](C(=O)N[C@@H](Cc1ccccc1)C(=O)N[C@@H](CCC(N)=O)C(=O)N[C@@H](CCC(N)=O)C(=O)N[C@@H](CSC1CC(=O)N(c2ccc3c(c2)C(=O)OC32c3ccc(N(C)C)cc3Oc3cc(N(C)C)ccc32)C1=O)C(N)=O)C(C)C)[C@@H](C)CC (stereo partly shown) [PV-38] (H-FEELAWKIAKMIWSDVFQQC(X1)-NH2; N-terminus assumed)	dramatically enhanced binding to RIα	substantially no binding; also recorded: further disrupting RIIα binding	only localized GFP-RI to the mitochondria	GFP-RII was not localized	enhanced binding to RIα by a factor of ten	considerable reduction in affinity to RIIα
CC[C@H](C)[C@H](NC(=O)[C@H](CCCCN)NC(=O)[C@H](Cc1c[nH]c2ccccc12)NC(=O)[C@H](C)NC(=O)[C@H](CC(C)C)NC(=O)[C@H](CCC(=O)O)NC(=O)[C@H](CCC(=O)O)NC(=O)[C@H](CCC(N)=O)NC(=O)[C@H](C)NC(=O)[C@H](CCC(=O)O)NC(=O)[C@H](CC(=O)O)NC(=O)[C@@H](NC(=O)[C@H](CC(N)=O)NC(=O)CNC(=O)[C@H](CCC(N)=O)NC(=O)[C@@H](N)C(C)C)[C@@H](C)O)C(=O)N[C@@H](C)C(=O)N[C@@H](CCCCN)C(=O)N[C@@H](CCSC)C(=O)N[C@H](C(=O)N[C@H](C(=O)N[C@@H](CO)C(=O)N[C@@H](CC(=O)O)C(=O)N[C@H](C(=O)N[C@@H](CCSC)C(=O)N[C@@H](CCC(N)=O)C(=O)N[C@@H](CCC(N)=O)C(=O)N[C@@H](CSC1CC(=O)N(c2ccc3c(c2)C(=O)OC32c3ccc(N(C)C)cc3Oc3cc(N(C)C)ccc32)C1=O)C(N)=O)C(C)C)C(C)C)[C@@H](C)CC (stereo partly shown) [AKB (dual)] (H-VQGNTDEAQEELAWKIAKMIVSDVMQQC(X1)-NH2; N-terminus assumed)			able to recruit both GFP-RIα and GFP-RIIα to the mitochondria	able to recruit both GFP-RIα and GFP-RIIα to the mitochondria		
